Data as given in BindingDB's records for doi:10.1016/j.bmcl.2009.05.085 (Targacept, 2009).
pKi: −log10 of the molar value.

Molecular target: Neuronal acetylcholine receptor subunit alpha-7 (Mus musculus, UniProt P49582)
Experiment: Displacement of [125I]alpha-bungarotoxin from alpha7 nAChR in C57BL/6J mouse hippocampal membrane

Chain of Neuronal acetylcholine receptor subunit alpha-7 (P49582 whole entry): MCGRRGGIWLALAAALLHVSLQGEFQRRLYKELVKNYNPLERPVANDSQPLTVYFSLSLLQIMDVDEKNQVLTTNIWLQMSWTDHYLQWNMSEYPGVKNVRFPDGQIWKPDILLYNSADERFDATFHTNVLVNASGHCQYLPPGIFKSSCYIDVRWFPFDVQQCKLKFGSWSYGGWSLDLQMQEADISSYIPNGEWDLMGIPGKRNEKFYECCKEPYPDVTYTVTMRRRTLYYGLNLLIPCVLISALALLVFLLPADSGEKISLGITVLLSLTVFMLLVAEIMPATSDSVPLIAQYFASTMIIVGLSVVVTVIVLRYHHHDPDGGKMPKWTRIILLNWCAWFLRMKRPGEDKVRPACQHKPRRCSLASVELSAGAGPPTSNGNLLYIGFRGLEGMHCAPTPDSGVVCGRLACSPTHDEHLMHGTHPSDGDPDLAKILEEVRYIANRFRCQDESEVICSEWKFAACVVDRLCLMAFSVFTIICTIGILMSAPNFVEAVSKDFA

O=C(O)[C@@H](O)[C@H](O)[C@H](O)[C@@H](O)C(=O)O
pKi: < 5.00
